From US20170209499A1, “Propolis and Extracts Thereof for the Treatment of Skin Cancers and Improvement of Skin Health” (Manuka Health New Zealand Limited, priority 2014, published 2017)

System: human basal carcinoma cell line TE 354.T
Assay: MTT cell proliferation assay, human basal cell carcinoma cell line TE 354.T
Type: cell-based
Conditions: for Mean OD: MTT Optical Density at 570 nm
Procedure: The three human skin cancer cell lines were: • 1) Human Melanoma cell line (A-2058). • 2) Human Epidermoid (Squamous) Carcinoma cell line (A-431). • 3) Human Basal Cell Carcinoma cell line (TE 354.T).
The cell lines were revived from cryostorage and cultured in the presence of the test and reference samples. An MIT assay was then performed on the cultures to determine the effect of the samples on the cell viability and proliferation. The percentage standard error of the mean was assessed and extreme outliers were removed if the SEM%>15. Preliminary statistical significance was assessed with an independent Student t-test at α<0.05 (with and without outliers). The methodology was based on the procedures reported by: • Ahn, N G, Campbell J S (1993). […] Proc Natl Acad Sci. 90: 5143-5147. • Galan-Cobo, A et al (2014). Functional inhibition of aquaporin-3 with a gold-based compound induces blockage of cell proliferation. J Cellul. Physiol. 229: 1787-1801. • Roomi, M W, Kalinovsky, J et al (2013) Effect of a nutrient mixture on matrix metalloproteinase-9 dimers in various human cancer cell lines. Inter 3 Oncol. 44: 936-942. • Huang, H C, Lin, M K et al (2013). Cardenolides and bufadienolide glycosides from Kalanchoe tubiflora and evaluation of cytotoxicity. Planta Medica. 79: 1362-1369. • Tilli, C M L J, Stavast-Kooy, A J W et al (2003). The garlic-derived organosulfur component ajoene decreases basal cell carcinoma tumor size by inducing apoptosis. Arch Dermatol Res. 295: 117-123.
• 1. Human melanoma cell line (A-2058, ATCC CRL11147) was obtained from ATCC, Bethesda, Md., USA. • 2. Human squamous (epidermoid) carcinoma cell line (A-431, ATCC CRL1555) was obtained from ATCC, Bethesda, Md. USA. • 3. Human basal cell carcinoma cell line (TE 354.T, ATCC CRL7762) was obtained from ATCC, Bethesda, Md., USA. • 4. Dulbecco's Modified Eagle's Medium (DMEM) was obtained from GIBCO (12100-038). 10% Foetal Bovine Serum (FBS), 100 U/ml Penicillin and […] Streptomycin were added before use. • 5. Penicillin-streptomycin solution, stored at −20° C. consisting of 10000 units/ml penicillin and 10 mg/ml streptomycin in 0.9% NaCl was obtained from Sigma (#P-0781). • 6. Trypsin-EDTA solution consisting of 0.25% Trypsin/EDTA was obtained from Invitrogen (#15400054). • 7. Phosphate buffered saline (PBS) was prepared in-house. • 8. Hanks Balanced Salt Solution (HBSS), stored at 4° C. was obtained from GIBCO (#14185-052). • 9. Foetal Bovine Serum (FBS) stored at −20° C. was obtained from GIBCO (#10091-148). • 10. MTT Reagent, 100 mg/vial, was obtained from Sigma (M-2128) and then dissolved in PBS at 10 mg/ml and stored at −20° C. A 5 mg/ml MTT solution was prepared in PBS and stored at 4° C. as the working solution. • 11. MU lysis buffer: 10% sodium dodecyl sulphate (SDS)/45% Dimethyl Formamide was prepared by dissolving 20 g SDS in 100 ml of double-distilled water (DDW), and then adding 90 ml of Dimethyl Formamide to the solution. The pH was adjusted to 4.7 by glacial acetic acid, and DDW added up to a final volume of 200 ml. • 12. 5-Fluorouracil (5-FU) was supplied by Sigma (F-6627). Three working solutions were prepared at 19.5 μg/ml. 6.5 μg/ml and 1.95 μg/ml dissolved in 15% Ethanol/HBSS. Final concentrations were 1.95 μg/ml (15 μM), 0.65 μg/ml (5 μM) and 0.195 μg/ml (1.5 μM).
• 1. Each of the cell lines was revived from cryostorage. • 2. Following initial propagation using the media described above (Characterisation of Test System, and Medium Preparation), the cell culture was subcultured using trypsin-EDTA. The media was removed and 5ml of the trypsin-EDTA solution added and incubated at 37° C. for 5 min or until all the cells had detached. The trypsin was neutralised by the addition of an equal volume of the relevant medium and centrifugation of the suspension at 300 g (1200 rpm) for 5 min at 4° C. • 3. […]

**Q.** Which results are given for `O=c1[nH]cc(F)c(=O)[nH]1` [5-fluorouracil, reference compound]?
**A.** Mean OD (0.195 μg/ml): 0.2548; Mean OD (0.65 μg/ml): 0.2656; Mean OD (1.95 μg/ml): 0.2553; inhibition at 0.195 µg/mL (Homo sapiens, 0.195 μg/ml, 24 hr incubation, vs cells only): 5.49%; inhibition at 0.65 µg/mL (Homo sapiens, 0.65 μg/ml, 24 hr incubation, vs cells only): 1.49%; inhibition at 1.95 µg/mL (Homo sapiens, 1.95 μg/ml, 24 hr incubation, vs cells only): 5.31%
